Data from patent US20100119506A1, “Effectors of PAR-2 Activation and Their Use in the Modulation of Inflammation” (BOEHRINGER INGELHEIM INTERNATIONAL GMBH, priority 2008, published 2010).

System: trans vivo delayed type hypersensitivity (DTH)
Assay: Trans vivo DTH model (footpad swelling)
Type: in vivo, mouse
Settings: 10 mg/kg; 24 hours after PBMCs and TT
Protocol: FIGS. 8A and 8B show the ability of anti-PAR-2 antibodies Par-B (FIG. 8A) and Par-D (FIG. 8B) to inhibit trans vivo DTH. Shown are the changes in paw thickness after injection of human peripheral blood mononuclear cells alone (PBMC) or after injection of PBMCs and […] (TT). Mice were pretreated (ip at −3 hours) with PBS, hu IgG4 (20 mg/kg), or anti-PAR-2 antibody. Percent inhibition is shown at top of the bars. *p<0.05 as compared to PBS.
The trans vivo delayed type hypersensitivity (DTH) is a validated model of human T cell mediated inflammation in mice (Warnecke, G. et al. (2007) Transplantation 84(3):392-399; Pelletier, R. P. et al. (Mar. 28, 2007, Epub) Hum. Immunol. 68(6):514-522; Carrodeguas, L. et al. (1999) Hum. Immunol. 60(8):640-651). In this assay, human PBMCs from tetanus-sensitized donors are isolated and co-injected with tetanus toxoid (TT) into the mouse footpad. The swelling response that develops in the footpad is measured at 24 hours. This swelling response is dependent on antigen-specific activation of the human T cells as well as on the inflammation mediated by mouse cells.
Shown in FIG. 8A and FIG. 8B, are the changes in footpad thickness 24 hours after injection of PBMCs and TT.

C[C@@H]1C[C@H]2[C@@H]3CCC4=CC(=O)C=C[C@]4(C)[C@@]3(F)[C@@H](O)C[C@]2(C)[C@@]1(O)C(=O)CO [dexamethasone, reference compound]
inhibition of footpad swelling response: approximately 80%
